Values quoted from earlier work in the CATMoS acute toxicity set (Mansouri et al. 2021).
Values joined by “and” are separate entries in the source; they are usually repeats but may differ in a detail not shown here. Identical values can stand only once.

Assay: rat acute oral toxicity
Conditions: in vivo

Row | SMILES | LD50
1 | O=C1CN2CCOC2(c2ccccc2Cl)c2cc(Cl)ccc2N1 (configuration not stated) | 1780 mg/kg
2 | CC(C)CC(C)OC(=O)/C=C\C(=O)OC(C)CC(C)C (configuration not stated) | 7340 mg/kg
3 | CCCN=C(NCCC)C(OCC)c1ccc(Cl)cc1 (configuration not stated) | 47 mg/kg
4 | COc1ccc(C(=C(c2ccccc2)[N+](=O)[O-])c2ccc(OCCN3CCCC3)cc2)cc1 | 1780 mg/kg
5 | N#Cc1cccnc1 | 1180 mg/kg
6 | Cc1ccc(S(=O)(=O)N=C=O)cc1 | 2230 mg/kg
7 | CN(C)C(=O)Nc1cc(C(C)(C)C)on1 | 630 mg/kg
8 | CN(C)CCCNC1=C2C(=CC=CC2[N+](=O)[O-])N(O)c2ccccc21 (configuration not stated) | 110 mg/kg
9 | COC(=O)CC(SP(=S)(OC)OC)C(=O)OC (configuration not stated) | 1020 mg/kg
10 | NC(=O)NC(=O)Cc1ccccc1 | 1600 mg/kg
11 | CCOP(=S)(OCC)Oc1ccc2c(C)cc(=O)oc2c1 | 14.7 mg/kg
12 | CCN(CC)C(=O)c1nnn(-c2ccccc2)c1C | 500 mg/kg
13 | N#CCCC1(CCC#N)c2ccccc2-c2ccccc21 | 2180 mg/kg
14 | CCCCCCCC(=O)Oc1ccc(C)cc1 | 1600 mg/kg
15 | CCC(CCN(CC=C(C)C)CC=C(C)C)(C(N)=O)c1cccc2ccccc12 (configuration not stated) | 283 mg/kg
16 | Cc1nc2ccccc2n1Cc1ccc(Cl)cc1 | 2200 mg/kg
17 | COc1ccc(O)c(C(N)=O)c1 | 1900 mg/kg
18 | CC(=O)OCC#N | 32 mg/kg
19 | COc1ccc(CC(=O)O)cc1 | 1550 mg/kg
20 | CCNC(=S)NCC | 316 mg/kg
21 | Cc1ncc(CSCc2cnc(C)c(O)c2CO)c(CO)c1O | 7500 mg/kg
22 | O=C1CCc2cc(C(=O)CCCN3CC=C(c4ccc(Cl)cc4)CC3)ccc2N1 | 500 mg/kg
23 | Cc1cc(=O)oc2cc(O)ccc12 | 3850 mg/kg
24 | O=c1[nH]c2ccccc2c(=O)n1CCCN1CCN(c2cccc(Cl)c2)CC1 | 7650 mg/kg

Row | SMILES | LD50
25 | Cc1cc(S(=O)(=O)O)c2c(C)ccc(C(C)C)cc1-2 | 6380 mg/kg
26 | CN(C)C(=O)CCNc1ccc(Br)cc1 | 1810 mg/kg
27 | COc1cc(C(=O)OCCCN(C)CCN(C)CCCOC(=O)c2cc(OC)c(OC)c(OC)c2)cc(OC)c1OC | 2550 mg/kg
28 | CCC(C)(C)c1ccc(O)c(C(C)(C)CC)c1 | 330 mg/kg
29 | CCNc1cccc(C)c1 | 580 mg/kg
30 | CC1OC1C (configuration not stated) | 2150 mg/kg
31 | FC(F)(F)c1nc2c(Br)c(Br)c(Br)cc2[nH]1 | 7.18 mg/kg
32 | COP(=S)(OC)SC(C)N1CC(=O)C(=O)C1 (configuration not stated) | 5.6 mg/kg
33 | C=Cc1ccc(OCC2CO2)cc1 (configuration not stated) | 1000 mg/kg
34 | CC[C@@H](C(=O)O)[C@@H]1O[C@@H]([C@@H](C)[C@H](O)[C@H](C)C(=O)[C@H](CC)[C@H]2O[C@]3(C=C[C@@H](O)[C@]4(CC[C@@](C)([C@H]5CC[C@](O)(CC)[C@H](C)O5)O4)O3)[C@H](C)C[C@@H]2C)[C@@H](C)C[C@@H]1C | 18.5 mg/kg
35 | FC(F)(F)c1cccc(CNC2=NCCS2)c1 | 50 mg/kg
36 | CCCSP(=S)(OCC)Oc1ccc(Cl)cc1Cl (configuration not stated) | 875 mg/kg
37 | O=NN(CCCl)C(=O)NCCS(=O)(=O)NCc1ccccc1 | 250 mg/kg
38 | O=C(O)Cn1c(=O)n(Cc2ccc(Br)cc2F)c(=O)c2ccc(F)cc21 | 2140 mg/kg
39 | CCCCCCCCCCOC(=O)Cc1ccc(N(CCCl)CCCl)cc1 | 150 mg/kg
40 | CSc1ccc(O)cc1C | 3400 mg/kg
41 | Nc1ccc(-c2ccccc2N)cc1 | 311 mg/kg
42 | CCCCNC(=O)NS(=O)(=O)c1ccc(N)cc1 | 4400 mg/kg
43 | C=CC(=O)OCCN(C)C | 455 mg/kg
44 | CCCCc1ccc2c(S(=O)(=O)O)cc(CCCC)cc2c1 | 1250 mg/kg
45 | CNC(=O)Oc1cc(C)c(C)cc1Cl | 30 mg/kg
46 | C1CCCCC1 | 12700 mg/kg
47 | C=C(C)C#N | 120 mg/kg
48 | OCC(O)Oc1ccc(Cl)cc1Cl (configuration not stated) | 1070 mg/kg

Row | SMILES | LD50
49 | CC(C=O)=Cc1ccco1 | 1400 mg/kg
50 | CN1CCN(C2=Nc3ccccc3Cc3ccccc32)CC1 | 660 mg/kg
51 | Cc1c(Cl)c(Br)cc2[nH]c(C(F)(F)F)nc12 | 30 mg/kg
52 | CC(C)(C)c1nnc(NS(=O)(=O)c2ccccc2)s1 | 500 mg/kg
53 | CNC(=O)Oc1cccc2ccc(C)nc12 | 120 mg/kg
54 | O=C(O)C1CCc2cc(C3CCCCC3)ccc21 (configuration not stated) | 287 mg/kg and 230 mg/kg
55 | C[N+](C)(C)CCOP(=O)(O)OP(=O)(O)OC[C@H]1O[C@@H](n2ccc(N)nc2=O)[C@H](O)[C@@H]1O | 18500 mg/kg
56 | CCCCC/C(=C/c1ccccc1)CO | 4000 mg/kg
57 | NN1C(=O)CC(c2cccc(Br)c2)C1=O (configuration not stated) | 1600 mg/kg
58 | CC(C)(C)C1CCC(O)CC1 (configuration not stated) | 4200 mg/kg
59 | COc1ccc2c(c1)c(CC(=O)O)c(C)n2C(=O)/C=C/c1ccccc1 | 900 mg/kg
60 | Cc1cc(C)cc(OCC2CNC(=O)O2)c1 (configuration not stated) | 775 mg/kg
61 | CC(C)=CCC(CCN1CCCC1)(C(N)=O)c1cccc2ccccc12 (configuration not stated) | 71 mg/kg
62 | COc1ccc(C(Oc2ccccc2)C2=NCCCN2)cc1F (configuration not stated) | 1000 mg/kg
63 | CCC(CC)COCCOCCCN1C(=O)C2C3C=CC(C3)C2C1=O (configuration not stated) | 9500 mg/kg
64 | Cc1ncc(CO)c(C(=O)O)c1O | 7500 mg/kg
65 | CCOP(=O)(OCC)ON1C(=O)c2cccc3cccc(c23)C1=O | 70 mg/kg
66 | CCOC(=O)C(CC)(C(=O)NCCN(CC)CC)c1ccccc1 (configuration not stated) | 610 mg/kg
67 | N#Cc1ccc2nc(C(F)(F)F)[nH]c2c1 | 4.41 mg/kg
68 | CP(=O)(Oc1ccc([N+](=O)[O-])cc1)c1ccccc1 (configuration not stated) | 12.5 mg/kg
69 | c1cc2c(cc1C1CCCCC1)c1c3n2CCNC3CCC1 (configuration not stated) | 3070 mg/kg
70 | O=NN1CCSC1 | 1950 mg/kg
71 | S=P(N1CC1)(N1CC1)N1CC1 | 23 mg/kg
72 | COC(OC)c1ccccc1 | 1220 mg/kg

Row | SMILES | LD50
73 | FC(F)(F)c1nc2c(Cl)cc(Br)cc2[nH]1 | 6.4 mg/kg
74 | NC(=S)Cc1cccc2ccccc12 | 60 mg/kg
75 | CCN(CC)CCN1C(=O)NC(c2ccccc2)(c2ccccc2)C1=O | 1300 mg/kg
76 | OCC(Br)CBr (configuration not stated) | 681 mg/kg
77 | Nc1c(Cl)cc(C(=O)NC2CC2)cc1Cl | 170 mg/kg
78 | Cc1ccc2ncccc2c1 | 800 mg/kg
79 | CCC(C)=C1C(=O)N(c2ccccc2)N(c2ccccc2)C1=O | 2020 mg/kg
80 | C1COCCO1 | 4200 mg/kg
81 | Cc1ccccc1CNC1=NCCS1 | 164 mg/kg
82 | CC1(NC(N)=O)CCCCC1 | 1040 mg/kg
83 | CC(=O)CC1OCC(CCl)O1 (configuration not stated) | 120 mg/kg
84 | COc1c(OP(=S)(OCC(C)C)OCC(C)C)cnn(C)c1=O | 135 mg/kg
85 | Oc1cccc(Oc2ccccc2)c1 | 1210 mg/kg
86 | CCCSCSP(=S)(OCC)OCC | 2.8 mg/kg
87 | O=P(CCn1c(Cc2ccccc2)nc2ccccc21)(OCCCl)OCCCl | 6200 mg/kg
88 | COc1cccc2c1cc([N+](=O)[O-])c1c(C(=O)O)cc3c(c12)OCO3 | 184 mg/kg
89 | C=CS(C)(=O)=O | 570 mg/kg
90 | CCC1=CSC(S)N1 (configuration not stated) | 35 mg/kg
91 | NCc1ccc(S(N)(=O)=O)cc1 | 9210 mg/kg
92 | O=[N+]([O-])c1ccc(O)c2ncccc12 | 510 mg/kg
93 | O=C(CCCN1CCC(n2c(=S)[nH]c3ccccc32)CC1)c1ccc(F)cc1 | 232 mg/kg
94 | CC(C)COC(=S)S | 1290 mg/kg
95 | CCO[Si](CC)(OCC)OCC | 14000 mg/kg
96 | FC(F)(F)c1nc2c(Cl)c(Br)c(Br)c(Br)c2[nH]1 | 5.25 mg/kg

Row | SMILES | LD50
97 | CC1OC1C1CCC2(C)OC2C1 (configuration not stated) | 5630 mg/kg
98 | O=[N+]([O-])c1cc2nc(C(F)(F)F)[nH]c2cc1[N+](=O)[O-] | 15.2 mg/kg
99 | Cc1c(N(C)C)c(=O)n(-c2ccccc2)n1C | 285 mg/kg
100 | Clc1ccc(Cn2c(CN3CCCC3)nc3ccccc32)cc1 | 1950 mg/kg
101 | O=[N+]([O-])c1cc([N+](=O)[O-])c(Cl)c(S(=O)(=O)O)c1 | 1460 mg/kg
102 | BrC(Br)(Br)c1ccc2ccccc2n1 | 6770 mg/kg
103 | O=C1C2C3C=C(C(O)(c4ccccc4)c4ccccn4)C(C3=C(c3ccccc3)c3ccccn3)C2C(=O)N1Cc1ccccn1 (configuration not stated) | 5.2 mg/kg
104 | O=c1ccc2cc(CCCCN3CCN(c4ccccc4)CC3)ccc2[nH]1 | 500 mg/kg
105 | CCCCCC(C=Cn1ccnc1)OCc1ccccc1 (configuration not stated) | 2550 mg/kg
106 | CC(=O)CC(=O)Nc1ccccc1 | 2450 mg/kg
107 | COc1ccc(Oc2ccc(NC(=O)N(C)C)cc2)cc1 | 1000 mg/kg
108 | CCOC(=O)COC(=O)c1cc(Oc2ccc(C(F)(F)F)cc2Cl)ccc1[N+](=O)[O-] | 1480 mg/kg
109 | CCCCCCCCN | 315 mg/kg
110 | CCCc1ccc(OC)cc1 | 4400 mg/kg
111 | CN1CC[C@@]2(C)c3cc(OC(=O)NCCCCCCCCCCN4CCCCC4)ccc3N(C)[C@@H]12 | 15.3 mg/kg
112 | CCN(CC)CCSC(=O)N(c1ccccc1)c1ccccc1 | 370 mg/kg
113 | NC[C@@H]1O[C@H](O[C@H]2[C@@H](O)[C@H](O[C@@H]3[C@@H](O)[C@H](N)C[C@H](N)[C@H]3O[C@H]3O[C@H](CO)[C@@H](O)[C@H](O)[C@H]3N)O[C@@H]2CO)[C@H](N)[C@@H](O)[C@@H]1O | 21600 mg/kg
114 | O=[N+]([O-])c1ccc(O/N=C/c2cc(Br)c(O)c(Br)c2)c([N+](=O)[O-])c1 | 1100 mg/kg
115 | COc1cc(C2NC(=O)CCS2)cc(OC)c1OC (configuration not stated) | 5400 mg/kg
116 | CN1CCC(c2c[nH]c3ccccc23)C1 (configuration not stated) | 413 mg/kg
117 | CNC(=O)Nc1ccccc1 | 3440 mg/kg
118 | CC(C)(C)CON=CC1C(C(=O)OC(C#N)c2cccc(Oc3ccccc3)c2)C1(C)C (configuration not stated) | 143 mg/kg
119 | CCCOP(=O)(OCCC)Oc1ccc2c(C)c(Cl)c(=O)oc2c1 | 80 mg/kg
120 | CCCCOC(=O)c1ccccc1Nc1cccc(C(F)(F)F)c1 | 510 mg/kg

Row | SMILES | LD50
121 | ClC1=C(Cl)C2(Cl)C3C4OC4C(Cl)C3C1(Cl)C2(Cl)Cl (configuration not stated) | 15 mg/kg
122 | COP(=S)(OC)SCn1nc(Cl)ccc1=O | 5 mg/kg
123 | c1ccc(-c2ccc(CCOc3ncnc4ccccc34)cc2)cc1 | 1150 mg/kg
124 | Cc1ccc(N)c(C)c1 | 1260 mg/kg
125 | CC1(C)S[C@@H]2[C@H](NC(=O)C(C(=O)Oc3ccccc3)c3ccccc3)C(=O)N2[C@H]1C(=O)O (some centres not stated) | 10000 mg/kg
126 | CCc1ncc(C)nc1C | 456 mg/kg
127 | CCN(CC)C(=O)c1ccccc1C | 1210 mg/kg
128 | O=C(O)c1cc(I)cc(I)c1I | 2200 mg/kg and 813 mg/kg
129 | COc1cc2[nH]c(=N)sc2cc1OC | 1160 mg/kg
130 | Cc1cc(=O)nc(C(C)C)[nH]1 | 2700 mg/kg
131 | CNC(=O)Oc1ccc(CC#N)cc1 | 511 mg/kg
132 | N#CN=c1ccccn1Cc1ccc(Cl)cc1 | 500 mg/kg
133 | BrCBr | 108 mg/kg
134 | CC(C)=NN=C(C)C | 423 mg/kg
135 | CCSSCC | 2030 mg/kg
136 | Nc1ccc2cc(S(=O)(=O)O)ccc2c1CS(=O)(=O)O | 9200 mg/kg
137 | O=C(CN1CCCCC1)N1CCOc2ccccc21 | 200 mg/kg
138 | CC(C)c1ccc(CO)cc1 | 1020 mg/kg
139 | Nc1ccc([N+](=O)[O-])c(N)c1 | 4500 mg/kg
140 | O=C(O)c1ccccc1C(=O)Nc1ccccc1 | 8840 mg/kg
141 | CCC(C)N(C(=O)c1c(Cl)cccc1Cl)C(C)CC (configuration not stated) | 1450 mg/kg
142 | CCCOP(=S)(OCCC)Oc1cnn(C)c(=O)c1OC | 26 mg/kg
